From US20240124478A1, “SPIROCYCLIC-SUBSTITUTED 6,7-DIHYDRO-PYRANO[2,3-d]PYRIMIDINE INHIBITORS OF KRAS G12C MUTANT” (Merck Sharp & Dohme LLC, priority 2020, published 2024)
Read-outs that look alike come from different tables or passages of the source.

Experiments:
NCI-H358 cells = test: Cellular phospho-ERK assay; type: cell-based; details: 2 hour incubation, ratio of p-Erk vs total Erk, read-out: IC50 (nM) pERK (Cell)
Protocol: NCI-H358 cells (ATCC® CRL-5807™) were cultured in T150 flask in growth medium (RPMI medium 1640-(ThermoFisher Scientific 61870) containing 10% fetal bovine serum (ThermoFisher Scientific 10091148)). The cells were harvested in growth medium after TrypLE (ThermoFisher scientific 12604021) digestion and were seeded in 384-well collagen coated cell culture plate (Corning 356702) at a density of 15,000 cells/well, and incubated at 37° C., 5% CO2 overnight. The compound dose-response titrations were prepared and appropriate amounts of compounds were dispensed in a 384-well intermediate plate using an Echo 550 liquid handler. RPMI medium 1640-GlutaMAX™-I were added to the intermediate plate and transferred to 384-well cell culture plate, which was incubated at 37° C., 5% CO2 for 2 hours. After removal of medium from the plate, cells were lysed in lysis buffer from SureFire® Ultra™ Multiplex p-Erk and total Erk assay kit (PerkinElmer MPSU-PTERK) containing Halt™ Protease and Phosphotase inhibitor cocktail (ThermoFisher Scientific 78446) at room temperature with constant shaking at 300 rpm for 30 minutes. The cell lysates were then transferred to OptiPlate-384 plate (PerkinElmer 6005620) and the phosphorylation of Erk and total Erk levels were detected by Alpha SureFire Ultra Multiplex p-Erk kit PerkinElmer MPSU-PTERK) following the manufacturer's protocol. Assay plates were read on an EnVision Multimode Plate Reader (PerkinElmer), and the ratio of p-Erk vs total Erk in each well was used as the final readout. Dose response curves were analyzed using a 4-parameter logistic model to calculate IC50 values using spotfire software.

[1] = target: recombinant biotinylated KRAS protein containing G12C/C51S/C80L/C118S mutations (Biotinylated KRAS G12C protein) (Homo sapiens (Human), UniProt P01116, C118S/C51S/C80L/G12C); test: SOS-catalyzed nucleotide exchange assay (TR-FRET); type: biochemical; details: apparent potency; preincubation time of 60 minutes prior to addition of SOS
Protocol: The SOS-catalyzed nucleotide exchange assay utilizes a preformed complex of recombinant biotinylated KRAS protein containing G12C/C51S/C80L/C118S mutations (183 amino acids; biotin on K10; leader sequence which is an AviTag; referred to as SEQ ID NO: 1 or “Biotinylated KRAS G12C protein” hereafter), Bodipy-GDP, and Terbium-streptavidin. Compounds are added to this complex and then after 60 minutes incubation time, the mixture is treated with recombinant SOS protein and unlabeled GTP. Small molecule inhibitors stabilize the Bodipy-GDP complex whereas the untreated protein rapidly exchanges Bodipy-GDP for unlabeled GTP resulting in reduced TR-FRET signal.
Biotinylated KRAS G12C protein (SEQ ID NO: 1) is diluted to 2 μM in an EDTA buffer (20 mM HEPES, 150 mM sodium chloride, 10 mM EDTA, and 0.01% Tween) and incubated at room temperature for one hour. This mixture is then further diluted to 90 nM in an assay buffer (20 mM HEPES, 150 mM sodium chloride, 10 mM magnesium chloride, and 0.005% Tween) containing 15 nM of Terbium-Streptavidin (Invitrogen, catalog #PV3577) and 900 nM of Bodipy-GDP and incubated at room temperature for six hours. This solution is referred to as Biotinylated KRAS G12C mixture.
Each test compound (10 mM stock in DMSO) is diluted in DMSO to make a 10-point, 3-fold dilution series in a 384-well low dead volume microplate (Labcyte, catalog #LP-0200). Once titrations are made, 10 nL of the diluted compounds is acoustically dispensed into a 384-well plate (Corning, catalog #3820) using an Echo 550 (Labcyte).
Each well of the plate receives 3 μL Biotinylated KRAS G12C mixture that had been incubating for six hours and 3 μL of assay buffer using a BioRAPTR (Beckman Coulter) and is incubated at room temperature for 60 minutes. Each well then receives 3 μL of 240 nM recombinant human SOS protein and 9 mM GTP (Sigma, G8877) in assay buffer and is incubated at room temperature for 60 minutes.
The time-resolved fluorescence resonance energy transfer signal of the plate is measured on an Envision (PerkinElmer) plate reader: Excitation filter=340 nm; emission1=495 nm; emission2=520 nm; dichroic mirror=D400/D505; delay time=100 μs. The signal of each well is determined as the ratio of the emission at 520 nm to that at 495 nm. Percent effect of each well is determined after normalization to control wells containing DMSO (no effect) or a saturating concentration of inhibitor (max effect). The apparent effect as a function of compound concentration is fit to a four parameter logistic equation.

Sequence of recombinant biotinylated KRAS protein containing G12C/C51S/C80L/C118S mutations (Biotinylated KRAS G12C protein) (P01116 other isoform, or with tags, fused parts or gaps, stated change not applied): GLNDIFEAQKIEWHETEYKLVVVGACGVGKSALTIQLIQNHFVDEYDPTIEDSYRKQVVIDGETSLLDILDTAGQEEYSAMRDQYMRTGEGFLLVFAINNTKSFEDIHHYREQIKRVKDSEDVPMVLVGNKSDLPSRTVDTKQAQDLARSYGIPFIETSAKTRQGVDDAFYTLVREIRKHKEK

`C=CC(=O)N1CCN(c2nc(OC[C@@H]3CCCN3C)nc3c2CCC2(CCCc4c(F)cccc42)O3)C[C@@H]1CC#N` (single isomer, unassigned) [Example 3a] was tested, and the IC50 (NCI-H358 cells) was 506 nM and the IC50 [1] was 14.5 nM.

For `C=CC(=O)N1CCN(c2nc(OC[C@@H]3CCCN3C)nc3c2CCC2(CCCc4ccccc42)O3)C[C@@H]1CC#N` (single isomer, unassigned) [Example 2a], the IC50 (NCI-H358 cells; Homo sapiens, NCI-H358, 2 h) was 154 nM and the IC50 [1] was 13.7 nM.

In the case of `C=CC(=O)N1CCN(c2nc(C(N)=O)nc3c2CCC2(CCCc4ccccc42)O3)C[C@@H]1CC#N` (single isomer, unassigned) [Example 18b], the IC50 (NCI-H358 cells; Homo sapiens, NCI-H358, 2 h) was 1520 nM and the IC50 [1] was 268 nM.

`C=CC(=O)N1CCN(c2nc(OC[C@@H]3CCCN3C)nc3c2CCC2(CC(C)c4ccccc42)O3)C[C@@H]1CC#N` (single isomer, unassigned) [Example 25c] showed an IC50 (NCI-H358 cells) of 11000 nM and an IC50 [1] of 253 nM.

Compound `C=CC(=O)N1CCN(c2nc(OC[C@@H]3CCCN3C)nc3c2CCC2(CC(C)c4ccccc42)O3)C[C@@H]1CC#N` (single isomer, unassigned) [Example 25a] has an IC50 (NCI-H358 cells) of 1100 nM and an IC50 [1] of 14.2 nM.

`C=CC(=O)N1CCN(c2nc(OC[C@@H]3CCCN3C)nc3c2CCC2(CCCc4c(C)cc(C)cc42)O3)C[C@@H]1CC#N` (single isomer, unassigned) [Example 11b] gave an IC50 (NCI-H358 cells) of 28600 nM and an IC50 [1] of 661 nM.

With `C=CC(=O)N1CCN(c2nc(OCC3(CN(C)C)CC3)nc3c2CCC2(CCCc4ccccc42)O3)C[C@@H]1CC#N` (single isomer, unassigned) [Example 12a] the IC50 (NCI-H358 cells) was 1330 nM and the IC50 [1] was 99.7 nM.

`C=CC(=O)N1CCN(c2nc(OC[C@@H]3CCCN3C)nc3c2CCC2(CCCc4c(F)cccc42)O3)C[C@@H]1CC#N` (single isomer, unassigned) [Example 3b] showed an IC50 (NCI-H358 cells) of 1120 nM and an IC50 [1] of 51 nM.

`C=CC(=O)N1CCN(c2nc(OC[C@@H]3CCCN3C)nc3c2CCC2(CCCc4cccc(C)c42)O3)C[C@@H]1CC#N` (single isomer, unassigned) [Example 1a] was tested, and the IC50 (NCI-H358 cells) was 495 nM and the IC50 [1] was 6.37 nM.

In the case of `C=CC(=O)N1CCN(c2nc(OC[C@@H]3CCCN3C)nc3c2CCC2(O3)c3ccccc3-c3ccccc32)C[C@@H]1CC#N` [Example 30, 2-((S)-1-acryloyl-4-(2′-(((S)-1-methylpyrrolidin-2-yl)methoxy)-5′,6′-dihydrospiro[fluorene-9,7′-pyrano[2,3-d]pyrimidin]-4′-yl)piperazin-2-yl)acetonitrile], the IC50 (NCI-H358 cells; Homo sapiens, NCI-H358, 2 h) was 1290 nM and the IC50 [1] was 68.6 nM.

Work on `C=CC(=O)N1CCN(c2nc(OC[C@@H]3CC(F)(F)CN3C)nc3c2CCC2(CCCc4ccccc42)O3)C[C@@H]1CC#N` (single isomer, unassigned) [Example 16a] yielded an IC50 (NCI-H358 cells) of 246 nM and an IC50 [1] of 18.9 nM.

Compound `C=CC(=O)N1CCN(c2nc(OC[C@@H]3CCCN3C)nc3c2CCC2(CCc4ccccc42)O3)C[C@@H]1CC#N` (single isomer, unassigned) [Example 4a] has an IC50 (NCI-H358 cells) of 311 nM and an IC50 [1] of 14.9 nM.

`C=CC(=O)N1CCN(c2nc(OC[C@@H]3CCCN3C)nc3c2CCC2(CCCc4ccnc(O)c42)O3)C[C@@H]1CC#N` (mixture of isomers) [Example 8, 2-((2S)-1-acryloyl-4-(1-hydroxy-2′-(((S)-1-methylpyrrolidin-2-yl)methoxy)-5′,6,6′,7-tetrahydro-5H-spiro[isoquinoline-8,7′-pyrano[2,3-d]pyrimidin]-4′-yl)piperazin-2-yl)acetonitrile] gave an IC50 (NCI-H358 cells; Homo sapiens, NCI-H358, 2 h) of 23400 nM and an IC50 [1] of 990 nM.

For `C=CC(=O)N1CCN(c2nc(OC[C@@H]3CCCN3C)nc3c2CCC2(CCC(C)c4ccccc42)O3)C[C@@H]1CC#N` (single isomer, unassigned) [Example 9d], the IC50 (NCI-H358 cells) was 2410 nM and the IC50 [1] was 149 nM.

In the case of `C=CC(=O)N1CCN(c2nc(OC[C@@H]3CCCN3C)nc3c2CCC2(O3)c3ccccc3CC2(C)C)C[C@@H]1CC#N` (single isomer, unassigned) [Example 27b], the IC50 (NCI-H358 cells) was 28600 nM and the IC50 [1] was 4490 nM.

In the case of `C=CC(=O)N1CCN(c2nc(OC[C@@H]3CCCN3C)nc3c2CCC2(CCC(C)c4ccccc42)O3)C[C@@H]1CC#N` (single isomer, unassigned) [Example 9c], the IC50 (NCI-H358 cells) was 1840 nM and the IC50 [1] was 110 nM.

`C=CC(=O)N1CCN(c2nc(OC[C@@H]3CCCN3CC)nc3c2CCC2(CCCc4ccccc42)O3)C[C@@H]1CC#N` (single isomer, unassigned) [Example 15b] was tested, and the IC50 (NCI-H358 cells) was 1810 nM and the IC50 [1] was 84 nM.

Work on `C=CC(=O)N1CCN(c2nc(OC[C@@H]3CCCN3C)nc3c2CCC2(CCc4c2ccc2[nH]ncc42)O3)C[C@@H]1CC#N` (single isomer, unassigned) [Example 28a] yielded an IC50 (NCI-H358 cells; Homo sapiens, NCI-H358, 2 h) of over 30000 nM and an IC50 [1] of 7840 nM.

With `C=CC(=O)N1CCN(c2nc(OC[C@@H]3CCCN3C)nc3c2CCC2(CCCc4cccc(Cl)c42)O3)CC1` (single isomer, unassigned) [Example 23a] the IC50 (NCI-H358 cells; Homo sapiens, NCI-H358, 2 h) was 26500 nM and the IC50 [1] was 5070 nM.

`C=CC(=O)N1CCN(c2nc(OC[C@@H]3CCCN3C)nc3c2CCC2(CCc4c2ccc2[nH]ncc42)O3)C[C@@H]1CC#N` (single isomer, unassigned) [Example 28b] was tested, and the IC50 (NCI-H358 cells) was 29400 nM and the IC50 [1] was 2330 nM.

`C=CC(=O)N1CCN(c2nc(OCC3(CN(C)C)CC3)nc3c2CCC2(CCCc4ccccc42)O3)C[C@@H]1CC#N` (single isomer, unassigned) [Example 12b] was tested, and the IC50 (NCI-H358 cells) was 5620 nM and the IC50 [1] was 728 nM.

`C=CC(=O)N1CCN(c2nc(OC[C@@H]3CCCN3C)nc3c2CCC2(O3)c3ccccc3CC2(C)C)C[C@@H]1CC#N` (single isomer, unassigned) [Example 27a] showed an IC50 (NCI-H358 cells; Homo sapiens, NCI-H358, 2 h) of 30000 nM and an IC50 [1] of 1080 nM.

`C=CC(=O)N1CCN(c2nc(OC[C@@H]3CCCN3C)nc3c2CCC2(CCC(F)(F)c4ccccc42)O3)C[C@@H]1CC#N` (single isomer, unassigned) [Example 7b] was tested, and the IC50 (NCI-H358 cells) was 2150 nM and the IC50 [1] was 119 nM.

`C=CC(=O)N1CCN(c2nc(OC[C@@H]3CCCN3C)nc3c2CCC2(CCc4ccccc42)O3)CC1` (single isomer, unassigned) [Example 22a] gave an IC50 (NCI-H358 cells; Homo sapiens, NCI-H358, 2 h) of 24600 nM and an IC50 [1] of 6320 nM.

`C=CC(=O)N1CCN(c2nc(OCC[C@@H]3CCCN3C)nc3c2CCC2(CCCc4ccccc42)O3)C[C@@H]1CC#N` (single isomer, unassigned) [Example 5b] was tested, and the IC50 (NCI-H358 cells) was 5980 nM and the IC50 [1] was 274 nM.

`C=CC(=O)N1CCN(c2nc(OC[C@@H]3CCCN3C)nc3c2CCC2(CCC(C)(C)c4ccccc42)O3)C[C@@H]1CC#N` (single isomer, unassigned) [Example 6b] showed an IC50 (NCI-H358 cells) of 4370 nM and an IC50 [1] of 413 nM.

Work on `C=CC(=O)N1CCN(c2nc(OC[C@@H]3CCCN3C)nc3c2CCC2(O3)c3ccccc3CCC2C)C[C@@H]1CC#N` (single isomer, unassigned) [Example 10b] yielded an IC50 (NCI-H358 cells) of 4530 nM and an IC50 [1] of 50 nM.

`C=CC(=O)N1CCN(c2nc(OC[C@@H]3CCCN3C)nc3c2CCC2(CC(C)c4ccccc42)O3)C[C@@H]1CC#N` (single isomer, unassigned) [Example 25b] gave an IC50 (NCI-H358 cells) of 2740 nM and an IC50 [1] of 11.6 nM.

Work on `C=CC(=O)N1CCN(c2nc(OC[C@@H]3CC(F)(F)CN3C)nc3c2CCC2(CCCc4ccccc42)O3)C[C@@H]1CC#N` (single isomer, unassigned) [Example 16b] yielded an IC50 (NCI-H358 cells) of 1650 nM and an IC50 [1] of 109 nM.
